“Also recorded” adds a separate entry of the source.
What was measured:
TC-1 tumor cells = type: in vivo; conditions: 5 mg/kg i.p. every day for 21 days; for TC-1 metastatic tumor incidence and burden in lungs: versus PBS or Vehicle controls
Excerpt: Development of Animal Model for CXCR4 Dependent Cancer Metastasis in Lungs: To establish a CXCR4 dependent lung tumor metastasis model, we first screened several cancer cell lines that are known to metastasize to lungs in mice models to determine which cancer cell lines endogenously express CXCR4 receptor. The mice cell lines screened were Lewis lung carcinoma, B16F10 melanoma, and TC-1 cervical carcinoma. Mice cell lines were screened using flow cytometry-based surface receptor staining using a fluorochrome labeled antibody to mouse CXCR4 receptor. […] The TC-1 cell line was generated by transfection of murine lung squamous epithelial cells by Human pappillomavirus (HPV) oncogenes E6, E7, and activated Ras.
5 mg/kg body weight of AMD3100, I-28, I-36, or I-38 were also injected at the same dose intra-peritoneal (i.p.) every day for 21 days starting from the day before the tumor cell injection. Mice were sacrificed and lungs were perfused and collected on day 21 post tumor challenge. Lungs were stored in formalin for 16 hrs and then transferred into 70% ethanol until the lung lobes became lucid. All five lung lobes were separated. Tumors were counted using a magnifying glass or a microscope. Tumor sizes were measured using a digital caliper. The total number of tumors counted in all five lung lobes of an individual mouse is reported as the tumor incidence. Mean tumor sizes were added together to calculate cumulative tumor size, which is reported as the tumor burden for each mouse.

300.19 cells = experiment: Cytotoxicity assay, propidium iodide based flow cytometry; type: cell-based; conditions: for cytotoxicity, percentage of cells staining positive for PI: 50 μM test compound
Procedure: Cytotoxicity Assay Method: To determine the potential for test compound cytotoxicity to influence cell intracellular calcium mobilization and chemotaxis, cell cytotoxicity was assessed using propidium iodide (PI) based flow cytometry. Propidium iodine is impermeable to intact cell membranes and thus its lack of intercalation into DNA (which increases PI fluorescence) is a positive indicator of cell viability. Cytotoxicity values are presented as percentage of cells staining positive for PI. Lower values of fluorescence indicate less cytotoxicity. All assays were performed a minimum of four times; error bars represent the standard deviation of the mean.

MDA-MB-231 cells = experiment: MTT cell proliferation assay, MDA-MB-231; type: cell-based, human; conditions: Homo sapiens, MDA-MB-231, 96 h, 4 days
Procedure: (§1) To determine the potential for compounds to impact the proliferation of cells, cell growth was assessed capacity using the 3-(4,5-dimethylthiazol-2-yl)-2,5-diphenyltetrazolium bromide (MTT) assay. The effect of these compounds was determined for four cell lines: HS27, a “normal” fibroblast cell line; MCF7, an estrogen-dependant non-metastatic breast cancer cell line; MDA-MB-231, an estrogen-independent metastatic breast cancer cell line; and A549, a lung cancer cell line. Cells were left untreated, treated with 12.5 mM DMSO, or treated with varying concentrations of four compounds, (I-9, I-25, I-36, and I-37), then incubated for 4 days, before analysis. Absorbance at 490 nm represents proliferating cells. For samples using compounds, these values are normalized to untreated samples.

BLT1 [1] = target: T1, BLT1 (Homo sapiens, UniProt Q15722); experiment: Chemotaxis assay, cells expressing BLT1, LTB4; type: cell-based; conditions: 50 μM test compound, LTB4-induced
Procedure: (§2) Cells were suspended in chemotaxis buffer (RPMI 1640, 1% fetal bovine serum, 1 mM HEPES) at a concentration of 1×10^7 cells per ml. Cell chemotaxis was determined by examining the migration of the 300.19 cells in response to administration of 50 μM test compound plus an optimized concentration of CXCL12 using a chemotaxis assay that was previously described in Basu et al. (Basu et al., Critical role for polar residues in coupling leukotriene B4 binding to signal transduction in BLT1, J. Biol. Chem. (2007) Vol. 282, pp. 10005-17). 100 μL of 300.19 cells from the above cell suspension were placed in the upper chamber of a Transwell support (Corning Costar, Cambridge, Mass.) and were separated by a 5 micron filter from a bottom chamber containing 50 μM test compound plus the optimized concentration of CXCL12 in a final bottom chamber volume of 600 μl. After 3 h of incubation at 37° C. in 5% CO2, the upper chamber was removed and cells in the lower chamber were counted in a Bürker chamber. Cell counts for all samples were normalized to a CXCL12 plus DMSO control and results are reported using this normalized measure, referred to herein as the chemotaxis index. In some instances, the IC50 concentration (i.e., the concentration at which the chemotaxis index is reduced to 50% of the chemotaxis index of the CXCL12 plus DMSO control) of the test compounds was determined. All assays were performed a minimum of four times; error bars represent the standard deviation of the mean.
To examine specificity of some of the compounds for CXCR4, their activity was tested against a non-family member class A G protein-coupled receptor, BLT1. […] I-38 and I-43 inhibited BLT1-mediated chemotaxis (0.23) and (0.045) to about the same extent as CXCR4-mediated chemotaxis (0.21) and (0.064), respectively.

MCF7 cells = experiment: MTT cell proliferation assay, MCF7; type: cell-based, human; conditions: Homo sapiens, MCF7, 96 h, 4 days
Procedure: as §1

A549 cells = experiment: MTT cell proliferation assay, A549; type: cell-based, human; conditions: Homo sapiens, A549, 96 h, 4 days
Procedure: as §1

hCXCR4-GFP [2] = target: T2, hCXCR4-GFP (Homo sapiens, UniProt P61073); experiment: Chemotaxis assay, hCXCR4-GFP expressing 300.19 cells, CXCL12; type: cell-based; conditions: for IC50: hCXCR4-GFP 300.19 cells, CXCL12
Procedure: as §2

hCXCR4-GFP [3] = experiment: as above; type: cell-based, human; conditions: from chemotaxis indices at 50 μM
Procedure: as §2

[4] = Test for toxicity in mice; type: in vivo; conditions: i.p. 5 mg/kg, then 20 or 40 mg/kg two days later; observed over 3 weeks
Procedure: Test for Toxicity: Mice were treated by intra-peritoneal injections of three of compounds I-28, I-36, and I-38 at the first dose of 5 mg/kg of body weight, followed by a second injection of either 20 mg/kg of body weight or 40 mg/kg of body weight two days later.

HS27 cells = experiment: MTT cell proliferation assay, HS27; type: cell-based, human; conditions: 4 days, normal fibroblast cell line
Procedure: as §1

CXCR4 = target: T3, CXCR4 (Homo sapiens, UniProt P61073); experiment: CXCL12-mediated chemotaxis of THP-1 cells; type: cell-based; conditions: 10 μM compound, CXCL12 500 ng/ml
T3 construct: endogenous in cells; host or cells: THP-1 cells (ATCC TIB-202)
Procedure: Data are presented as a percentage of THP-1 cells (obtainable from ATCC accession number TIB-202) migrating toward a CXCL12 gradient of 500 ng/ml, normalized to the control, which was the CXCL12 only treatment. All assays were performed a minimum of four times with inhibitor concentration of 10 μM, except for I-61 and I-62 which used an inhibitor concentration of 1 μM. Error bars represent the standard deviation of the mean.
(§3) Chemotaxis assays were performed with selected compounds at a concentration of 10 μM. Chemokines signaling via CXCR4 (CXCL12 at concentration of 500 ng/ml) and CCR5 (RANTES at concentration of 300 ng/ml) were utilized to assess the receptor specificity of each compound. Each pair of columns for a lane corresponds to two separate representative experiments. The negative control samples (lanes 2 and 7) correspond to the chemotaxis without CXCL12 or RANTES. The CXCL12 and RANTES lanes are positive controls corresponding to CXCL12 alone (lanes 1 and 6) or RANTES alone (lanes 4 and 9) mediated chemotaxis. The experimental samples (lanes 3, 5, 8, and 10) correspond to CXCL12- or RANTES-mediated chemotaxis when the cells are co-incubated with I-38 or I-46.

CCR5 = target: T4, CCR5 (Homo sapiens, UniProt P51681); experiment: RANTES-mediated chemotaxis of THP-1 cells; type: cell-based; conditions: 10 μM compound, RANTES 300 ng/ml
T4 construct: endogenous in cells; host or cells: THP-1 cells
Procedure: as §3

BLT1 [5] = target: T1, BLT1; experiment: Intracellular calcium mobilization assay, cells expressing BLT1, LTB4; type: cell-based; conditions: 50 μM test compound, LTB4
Procedure: (§4) Intracellular Calcium Mobilization Assay Method: The intracellular calcium mobilization assay used 300.19 cells which stably expressed hCXCR4-GFP, as described previously in Pello et al. (2008). Cells were loaded with INDO-I and then pretreated with the 50 μM of the test compound for 60 seconds prior to stimulation of intracellular calcium mobilization with an optimized concentration of CXCL12. […] The value Δ florescence is the difference between (a) the fluorescence ratio from cells before exposure to CXCL12 at its optimized concentration and (b) the fluorescence ratio from cells following stimulation with the optimized concentration of CXCL12. Decreases in Δ florescence correspond to decreases in intracellular calcium mobilization, and therefore, decreased signaling. As CXCL12 concentration was optimized for each test compound, results are presented as normalized Δ florescence which is Δ fluorescence divided by the fluorescence ratio of optimized CXCL12-only stimulation. In some instances, the IC50 concentration (concentration at which intracellular calcium mobilization is reduced to 50% of the Δ fluorescence of the CXCL12 plus DMSO control) of the test compounds was determined. All assays were performed a minimum of four times; error bars represent the standard deviation of the mean.
At 50 μM test compound concentrations in BLT1-expressing cells, I-44 (0.040) and I-46 (0.017) inhibited intracellular calcium mobilization.

hCXCR4-GFP [6] = target: T2, hCXCR4-GFP; experiment: Intracellular calcium mobilization assay, hCXCR4-GFP expressing 300.19 cells, CXCL12; type: cell-based; parameters: IC50 of intracellular calcium mobilization, CXCR4; other: CXCL12-mediated; other: 50 μM test compound; normalized Δ fluorescence (CXCR4, intracellular calcium mobilization); other: 50 μM test compound, 60 seconds pretreatm; conditions: 50 μM test compound
Procedure: as §4

T2 sequence (P61073 whole entry): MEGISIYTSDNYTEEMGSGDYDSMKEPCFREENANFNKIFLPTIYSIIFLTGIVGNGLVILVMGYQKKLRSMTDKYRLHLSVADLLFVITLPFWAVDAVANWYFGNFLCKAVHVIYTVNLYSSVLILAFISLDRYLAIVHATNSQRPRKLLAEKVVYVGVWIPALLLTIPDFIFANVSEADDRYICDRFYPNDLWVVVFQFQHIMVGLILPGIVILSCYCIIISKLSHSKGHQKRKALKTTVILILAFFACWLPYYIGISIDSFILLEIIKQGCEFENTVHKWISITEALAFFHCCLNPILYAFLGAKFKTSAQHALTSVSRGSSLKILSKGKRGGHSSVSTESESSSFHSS
T1 sequence (Q15722 whole entry, species assumed): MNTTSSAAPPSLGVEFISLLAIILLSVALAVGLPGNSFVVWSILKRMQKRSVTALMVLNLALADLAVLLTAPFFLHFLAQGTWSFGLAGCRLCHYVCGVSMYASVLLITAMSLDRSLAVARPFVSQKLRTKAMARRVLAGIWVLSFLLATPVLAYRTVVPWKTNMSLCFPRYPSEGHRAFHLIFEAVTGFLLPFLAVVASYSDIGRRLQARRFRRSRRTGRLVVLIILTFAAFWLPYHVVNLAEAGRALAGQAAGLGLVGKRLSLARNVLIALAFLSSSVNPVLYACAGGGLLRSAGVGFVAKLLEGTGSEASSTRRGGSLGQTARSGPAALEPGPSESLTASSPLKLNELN
T3 sequence (P61073 whole entry): as the sequence (P61073 whole entry) above
T4 sequence (P51681 whole entry): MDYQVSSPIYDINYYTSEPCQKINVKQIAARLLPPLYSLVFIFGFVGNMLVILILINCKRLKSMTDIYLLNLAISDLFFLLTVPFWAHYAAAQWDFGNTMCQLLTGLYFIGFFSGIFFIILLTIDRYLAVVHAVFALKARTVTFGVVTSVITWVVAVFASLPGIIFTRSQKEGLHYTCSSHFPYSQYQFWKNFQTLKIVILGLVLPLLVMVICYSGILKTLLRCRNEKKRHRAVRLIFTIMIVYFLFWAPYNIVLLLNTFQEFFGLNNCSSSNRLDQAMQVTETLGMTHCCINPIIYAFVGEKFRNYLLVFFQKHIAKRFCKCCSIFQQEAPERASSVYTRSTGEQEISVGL

Compound	TC-1 metastatic tumor incidence and burden in lungs (TC-1 tumor cells)	cytotoxicity, percentage of cells staining positive for PI (300.19 cells) [%]	cytotoxicity in dose response below 50 μM (300.19 cells; 50 μM, 10 μM, 5 μM and 1 μM tested)	IC50 (MDA-MB-231 cells) [µM]	chemotaxis index (BLT1-mediated) (BLT1 [1])	IC50 (MCF7 cells) [µM]	IC50 (A549 cells) [µM]	chemotaxis index (CXCR4-mediated) (hCXCR4-GFP [2]; 50 μM test compound plus optimized CXCL12, normalized to CXCL12 plus DMSO control)	IC50 (hCXCR4-GFP [2]) [µM]	fold greater inhibition of CXCR4-mediated than BLT1-mediated chemotaxis (hCXCR4-GFP [3]) [fold]	apparent toxicity (loss of body weight, signs of physiological distress) [4]	proliferation inhibition, HS27 (in words) (HS27 cells)	inhibition of CXCL12-mediated migration of THP-1 cells (CXCR4)	inhibition of RANTES-mediated migration of THP-1 cells (CCR5)	normalized Δ fluorescence (BLT1, intracellular calcium mobilization) (BLT1 [5])	normalized Δ fluorescence (CXCR4, intracellular calcium mobilization) (hCXCR4-GFP [6]; 60 seconds pretreatment, optimized CXCL12 (AMD3100 concentration not given))	efficacy compared with AMD3100 (TC-1 tumor cells)	reduction of average tumor burden (TC-1 tumor cells)	inhibition of intracellular calcium mobilization (in words) (hCXCR4-GFP [6])
CCn1c2ccccc2c2ccc(Nc3nc4ccccc4nc3NS(=O)(=O)c3ccc(C)cc3)cc21 [Compound I-36, N-[3-(9-ethylcarbazol-2-yl)aminoquinoxalin-2-yl]-4-methyl-benzenesulfonamide]	reduced mice TC-1 metastatic tumor incidence and burden in lungs	21.0	no cytotoxicity beyond the initial 50 μM screening concentration	30	0.44	12.5	22.5	0.12	1	3.5	did not induce any apparent toxicity	marginal proliferation inhibition at higher concentrations							
O=C(Nc1ccc2ccc3ccc(NC(=O)c4ccccc4)nc3c2n1)c1ccccc1 [Compound I-46, N,N′-1,10-phenanthroline-2,9-diylbis-benzamide]													inhibit migration to both chemokines	inhibit migration to both chemokines	0.017	0.067			
O=C(CO/N=C/c1ccccc1)N/N=C1\C(=O)N(CN(Cc2ccccc2)Cc2ccccc2)c2ccccc21 [Compound I-38, acetic acid, 2-[[(phenylmethylene)amino]oxy]-,2-[1-[[bis(phenylmethyl)amino]methyl]-1,2-dihydro-2-oxo-3H-indol-3-ylidene]hydrazide]	reduced mice TC-1 metastatic tumor incidence and burden in lungs	7.93			0.23				5		did not induce any apparent toxicity		specifically inhibit CXCR4 mediated migration	specifically inhibit CXCR4 mediated migration			more effective than AMD3100	more than 60%	does not significantly inhibit intracellular calcium mobilization; also recorded: little reduction of intracellular calcium mobilization

Source: US9145398B2, “Methods of treating CXCR4-expressing cancers” (University of Louisville Research Foundation, Inc., priority 2010, dated 2015)
